Four compounds from patent US8741836B2, “Polypeptides” (Novo Nordisk A/S, priority 2011, dated 2014) can be followed below.

The nature of this data set: Assay (III) ThT fibrillation assay for physical stability. Format: physicochemical. The conditions noted are these: for ThT pH 4.0 lag time: pH 4.0, ThT fibrillation assay. The method, boiled down: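 Freshly prepared, pH-adjusted formulations with 1 μM ThT incubated at 37 °C under 960 rpm orbital shaking (1 mm), fluorescence (ex 444, em 485 nm) read every 20 min. […] Peptide content before and after measured by reverse-phase HPLC against pramlintide standard.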

Starred links: 1 amine or outer side, 2 acyl side, 3 side chain; linkers in the order of their positions; H or OH if unused. Positions of bridges follow the written chain, without caps; N, C: chain ends. Residues, ends and D or L forms follow the SMILES beside them. *: point of attachment. C20 diacid = O=C(O)CCCCCCCCCCCCCCCCCCC(=O)*; γGlu = O=C(O)[C@H](CCC(=O)[*:2])N[*:1] Some results are limits rather than exact numbers.

Take `CC[C@H](C)[C@H](NC(=O)[C@@H]1CCCN1C(=O)CNC(=O)[C@H](Cc1ccccc1)NC(=O)[C@H](CC(N)=O)NC(=O)[C@H](CCC(N)=O)NC(=O)[C@H](CO)NC(=O)[C@H](CO)NC(=O)[C@H](Cc1c[nH]cn1)NC(=O)[C@H](Cc1c[nH]cn1)NC(=O)[C@H](CC(C)C)NC(=O)[C@H](Cc1ccccc1)NC(=O)[C@H](CCC(=O)O)NC(=O)[C@H](C)NC(=O)[C@H](CC(C)C)NC(=O)[C@H](CCCNC(=N)N)NC(=O)[C@H](CCC(N)=O)NC(=O)[C@@H](NC(=O)[C@H](C)NC(=O)[C@@H]1CSSC[C@H](NC(=O)CNC(=O)CC[C@H](NC(=O)CCCCCCCCCCCCCCCCCCC(=O)O)C(=O)O)C(=O)N[C@@H](CC(N)=O)C(=O)N[C@@H]([C@@H](C)O)C(=O)N[C@@H](C)C(=O)N[C@@H]([C@@H](C)O)C(=O)N1)[C@@H](C)O)C(=O)N[C@@H](CC(C)C)C(=O)N1CCC[C@H]1C(=O)N1CCC[C@H]1C(=O)N[C@H](C(=O)N[C@@H](CC(N)=O)C(=O)N[C@H](C(=O)NCC(=O)N[C@@H](CO)C(=O)N[C@@H](CCC(N)=O)C(=O)N[C@H](C(=O)N1CCC[C@H]1C(N)=O)[C@@H](C)O)C(C)C)[C@@H](C)O` [Example 137, N-alpha-[(S)-4-Carboxy-4-(19-carboxynonadecanoylamino)butyryl]-[Gly1,Glu14,His17,Gln21,Gln35,Pro37]-pramlintide] ({C20 diacid-γGlu}-GCNTATCATQRLAEFLHHSSQNFGPILPPTNVGSQTP-NH2; disulfide 2-7 (inferred)): the “ThT pH 4.0 lag time” value stood at 29 h. Same read-out and setting: the result for `CC[C@H](C)[C@H](NC(=O)[C@@H]1CCCN1C(=O)CNC(=O)[C@H](Cc1ccccc1)NC(=O)[C@H](CC(N)=O)NC(=O)[C@H](CC(N)=O)NC(=O)[C@H](CO)NC(=O)[C@H](CO)NC(=O)[C@H](Cc1c[nH]cn1)NC(=O)[C@H](Cc1c[nH]cn1)NC(=O)[C@H](CC(C)C)NC(=O)[C@H](Cc1ccccc1)NC(=O)[C@H](CCC(=O)O)NC(=O)[C@H](C)NC(=O)[C@H](CC(C)C)NC(=O)[C@H](CCCNC(=N)N)NC(=O)[C@H](CCC(N)=O)NC(=O)[C@@H](NC(=O)[C@H](C)NC(=O)[C@@H]1CSSC[C@H](NC(=O)CC[C@H](NC(=O)CCCCCCCCCCCCCCCCCCC(=O)O)C(=O)O)C(=O)N[C@@H](CC(N)=O)C(=O)N[C@@H]([C@@H](C)O)C(=O)N[C@@H](C)C(=O)N[C@@H]([C@@H](C)O)C(=O)N1)[C@@H](C)O)C(=O)N[C@@H](CC(C)C)C(=O)N1CCC[C@H]1C(=O)N1CCC[C@H]1C(=O)N[C@H](C(=O)N[C@@H](CC(N)=O)C(=O)N[C@H](C(=O)NCC(=O)N[C@@H](CO)C(=O)N[C@@H](Cc1c[nH]cn1)C(=O)N[C@H](C(=O)N[C@@H](Cc1ccc(O)cc1)C(N)=O)[C@@H](C)O)C(C)C)[C@@H](C)O` [Example 75, N-alpha-[(S)-4-Carboxy-4-(19-carboxynonadecanoylamino)butyryl]-[des1,Glu14,His17,His35]-pramlintide] ({C20 diacid-γGlu}-CNTATCATQRLAEFLHHSSNNFGPILPPTNVGSHTY-NH2; disulfide 1-6) reads 28 h. As to `CC[C@H](C)[C@H](NC(=O)[C@@H]1CCCN1C(=O)CNC(=O)[C@H](Cc1ccccc1)NC(=O)[C@H](CC(N)=O)NC(=O)[C@@H](NC(=O)[C@H](CO)NC(=O)[C@H](CO)NC(=O)[C@H](Cc1c[nH]cn1)NC(=O)[C@H](Cc1c[nH]cn1)NC(=O)[C@H](CC(C)C)NC(=O)[C@H](Cc1ccccc1)NC(=O)[C@H](CCC(=O)O)NC(=O)[C@H](C)NC(=O)[C@H](CC(C)C)NC(=O)[C@H](CCCNC(=N)N)NC(=O)[C@H](CCC(N)=O)NC(=O)[C@@H](NC(=O)[C@H](C)NC(=O)[C@@H]1CSSC[C@H](NC(=O)[C@H](CCCCN)NC(=O)CC[C@H](NC(=O)CCCCCCCCCCCCCCCCCCC(=O)O)C(=O)O)C(=O)N[C@@H](CC(N)=O)C(=O)N[C@@H]([C@@H](C)O)C(=O)N[C@@H](C)C(=O)N[C@@H]([C@@H](C)O)C(=O)N1)[C@@H](C)O)[C@@H](C)O)C(=O)N[C@@H](CC(C)C)C(=O)N1CCC[C@H]1C(=O)N1CCC[C@H]1C(=O)N[C@H](C(=O)N[C@@H](CC(N)=O)C(=O)N[C@H](C(=O)NCC(=O)N[C@@H](CO)C(=O)N[C@@H](CC(N)=O)C(=O)N[C@H](C(=O)N1CCC[C@H]1C(N)=O)[C@@H](C)O)C(C)C)[C@@H](C)O` [Example 146, N-alpha-[(S)-4-Carboxy-4-(19-carboxynonadecanoylamino)butyryl]-[Glu14,His17,Thr21,Pro37]-pramlintide] ({C20 diacid-γGlu}-KCNTATCATQRLAEFLHHSSTNFGPILPPTNVGSNTP-NH2; disulfide 2-7), the “ThT pH 4.0 lag time” value is given as over 45 h. In addition, the “ThT pH 4.0 lag time (physical stability in fibrillogenesis assay)” value (pH 4.0) was over 45 h.

As to `CC[C@H](C)[C@H](NC(=O)[C@@H]1CCCN1C(=O)CNC(=O)[C@H](Cc1ccccc1)NC(=O)[C@H](CC(N)=O)NC(=O)[C@H](CC(N)=O)NC(=O)[C@H](CO)NC(=O)[C@H](CO)NC(=O)[C@H](Cc1c[nH]cn1)NC(=O)[C@H](Cc1c[nH]cn1)NC(=O)[C@H](CC(C)C)NC(=O)[C@H](Cc1ccccc1)NC(=O)[C@H](CCC(=O)O)NC(=O)[C@H](C)NC(=O)[C@H](CC(C)C)NC(=O)[C@H](CCCNC(=N)N)NC(=O)[C@H](CCC(N)=O)NC(=O)[C@@H](NC(=O)[C@H](C)NC(=O)[C@@H]1CSSC[C@H](NC(=O)[C@H](CCCCN)NC(=O)CC[C@H](NC(=O)CCCCCCCCCCCCCCCCCCC(=O)O)C(=O)O)C(=O)N[C@@H](CC(N)=O)C(=O)N[C@@H]([C@@H](C)O)C(=O)N[C@@H](C)C(=O)N[C@@H]([C@@H](C)O)C(=O)N1)[C@@H](C)O)C(=O)N[C@@H](CC(C)C)C(=O)N1CCC[C@H]1C(=O)N1CCC[C@H]1C(=O)N[C@H](C(=O)N[C@@H](CC(N)=O)C(=O)N[C@@H](Cc1c[nH]cn1)C(=O)NCC(=O)N[C@@H](CO)C(=O)N[C@@H](CC(N)=O)C(=O)N[C@H](C(=O)N[C@@H](Cc1ccc(O)cc1)C(N)=O)[C@@H](C)O)[C@@H](C)O` [Example 116, N-alpha-[(S)-4-Carboxy-4-(19-carboxynonadecanoylamino)butyryl]-[Glu14,His17,His32]-pramlintide] ({C20 diacid-γGlu}-KCNTATCATQRLAEFLHHSSNNFGPILPPTNHGSNTY-NH2; disulfide 2-7), the “ThT pH 4.0 lag time” value is over 45 h.
